Where two headings read alike, the source gives them in different places. Blank lines part the entries; values can stand above or below the compound they belong to.
Key:
[1] = in water; cited from earlier work
[2] = Description: (§1) RI was measured with a refractometer and pH was measured with a pH meter.
[3] = Release of therapeutic from hydrogel in medi-dialysis chamber into PBS; type: physicochemical; details: therapeutic at 1 mg/ml, over 24 hours, dialysis chamber MWCO 50 kDa, UV spectroscopy
Description: FIGS. 3A, 3B, 3C, and 3D show the release of therapeutic from hydrogel (“OBG”; blue circles on the graphs) or PBS (green circles on the graphs) into PBS in a medi-dialysis chamber (MWCO, 50 kDa) over time.
The release was monitored over 24 hours and compared to release of the therapeutic from solution in PBS. For this assessment, a 0.5 ml sample of hydrogel plus therapeutic or PBS plus therapeutic was placed into a medi-dialysis chamber, and the chamber was placed in a beaker containing 100 ml of PBS. The remaining amount of therapeutic in the dialysis chamber was monitored using UV spectroscopy at various time points.

[4] = pH measured with a pH meter; type: physicochemical
Description: as §1

[5] = Rheological testing, parallel plate rheometer: viscosity and shear-thinning; type: physicochemical
Description: Thiol-modified carboxymethyl HA (CMHA-S) was synthesized as described in Lawyer et al. and Wendling et al., with a thiol modification of 0.1, 0.2, 0.4, or 0.7 μmol thiol/mg. Hydrogels were created by dissolving CMHA-S in phosphate-buffered saline (PBS; pH 7.4). The CMHA-S was disulfide crosslinked under continuous mixing with the addition of sodium hypochlorite. Rheological testing was performed using a parallel plate format rheometer with a 25 mm-diameter stainless steel geometry. Samples (5-6 ml) of hydrogel were placed in a 35 mm Petri dish, and the geometry was lowered to a gap of 5 mm. To determine viscosity and shear-thinning, the shear rate was varied from 0.1 to 10 Hz. A decreasing viscosity as shear rate increases indicates shear-thinning behavior.
Viscosity was determined as described in Example 1.

[6] = LE 2.5 mg/ml in CMHA-S hydrogel
[7] = drug incorporated at 1 mg/ml in CMHA-S hydrogel
[8] = PredA 1 mg/ml in CMHA-S hydrogel
[9] = PredA 5 mg/ml in CMHA-S hydrogel
[10] = PredA 10 mg/ml in CMHA-S hydrogel

Compound: C[C@@H]1C[C@H]2[C@@H]3CCC4=CC(=O)C=C[C@]4(C)[C@@]3(F)[C@@H](O)C[C@]2(C)[C@@]1(O)C(=O)CO [Dexamethasone, dexamethasone]
water solubility [1]: less than 0.09 mg/ml

RI ([2]; LE 1 mg/ml in CMHA-S hydrogel): 1.3355
RI [2, 6]: 1.3354
RI ([2]; LE 5 mg/ml in CMHA-S hydrogel): 1.3353
release from the hydrogel compared to release from PBS [3]: reduced compared to its release from PBS
pH ([4]; LE 1 mg/ml in CMHA-S hydrogel): 7.11
pH [4, 6]: 7.24
pH ([4]; LE 5 mg/ml in CMHA-S hydrogel): 7.55
Viscosity at 2.5 Hz ([5]; LE 1 mg/ml in CMHA-S hydrogel): 2.3 Pa · s
Viscosity at 2.5 Hz [5, 6]: 2.7 Pa · s
Viscosity at 2.5 Hz ([5]; LE 5 mg/ml in CMHA-S hydrogel): 3.3 Pa · s
Compound: CCOC(=O)O[C@]1(C(=O)OCCl)CC[C@H]2[C@@H]3CCC4=CC(=O)C=C[C@]4(C)[C@H]3[C@@H](O)C[C@@]21C [LE, loteprednol etabonate]
water solubility [1]: less than 0.001 mg/ml

RI [2, 7]: 1.3353
pH [4, 7]: 7.3
Viscosity at 2.5 Hz [5, 7]: 1.1 Pa · s
Compound: CN(C)CC/C=C1/c2ccccc2COc2ccc(CC(=O)O)cc21 [Olopatadine, olopatadine]
water solubility [1]: about 0.03 mg/ml

pH [4, 8]: 7.09
pH [4, 9]: 7.13
pH [4, 10]: 7.17
Viscosity at 2.5 Hz [5, 8]: 2.0 Pa · s
Viscosity at 2.5 Hz [5, 9]: 2.7 Pa · s
Viscosity at 2.5 Hz [5, 10]: 3.0 Pa · s
Compound: CC(=O)OCC(=O)[C@@]1(O)CC[C@H]2[C@@H]3CCC4=CC(=O)C=C[C@]4(C)[C@H]3[C@@H](O)C[C@@]21C [PredA, prednisolone acetate]
